Assay results: patent US9790229B2, “Bruton's tyrosine kinase inhibitors” (priority 2009, dated 2017)
Read-outs that look alike come from different tables or passages of the source.

Biological target: BTK (Homo sapiens (Human), UniProt Q06187)
Test: In vitro BTK kinase assay: BTK-POLYGAT-LS ASSAY
[1] = read-out: IC50 (10 uM ATP), 10 uM ATP, in vitro Btk kinase assay, Example 41

BTK, sequence (Q06187 whole entry): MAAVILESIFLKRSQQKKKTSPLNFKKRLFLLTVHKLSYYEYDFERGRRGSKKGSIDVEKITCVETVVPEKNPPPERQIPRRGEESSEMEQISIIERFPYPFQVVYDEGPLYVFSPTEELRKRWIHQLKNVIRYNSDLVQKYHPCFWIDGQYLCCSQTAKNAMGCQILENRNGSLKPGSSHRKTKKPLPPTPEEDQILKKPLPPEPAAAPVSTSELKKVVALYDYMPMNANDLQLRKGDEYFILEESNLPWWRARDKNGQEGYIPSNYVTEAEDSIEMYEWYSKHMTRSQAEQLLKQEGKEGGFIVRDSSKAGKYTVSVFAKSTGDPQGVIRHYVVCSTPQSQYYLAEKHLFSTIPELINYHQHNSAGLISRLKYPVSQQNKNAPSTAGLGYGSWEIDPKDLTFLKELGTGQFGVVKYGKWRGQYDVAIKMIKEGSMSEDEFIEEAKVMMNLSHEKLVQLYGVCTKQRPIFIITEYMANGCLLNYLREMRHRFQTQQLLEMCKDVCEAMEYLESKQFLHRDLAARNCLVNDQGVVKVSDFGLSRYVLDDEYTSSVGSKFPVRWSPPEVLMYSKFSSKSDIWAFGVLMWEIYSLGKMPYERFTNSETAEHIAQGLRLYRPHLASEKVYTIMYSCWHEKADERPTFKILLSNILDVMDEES

Row | Compound | IC50 | IC50 [1]
1 | Cc1ccnc(C)c1NC(=O)Nc1cccc(C2CCCN(c3ncnc4[nH]ccc34)C2)c1 (stereo not drawn) [compound 200] | 1 to 10 µM | –
2 | O=C(NCC1COCCO1)Nc1cccc(C2CCCN(c3ncnc4[nH]ccc34)C2)c1 (stereo not drawn) [compound 214] | 1 to 10 µM | –
3 | O=C(NCc1cccc(C2CCCN(c3ncnc4[nH]ccc34)C2)c1)Nc1ccccc1 (stereo not drawn) [compound 216] | 1 to 10 µM | –
4 | CC(C)c1ccccc1NC(=O)Nc1cccc(C2CN(c3ncnc4[nH]ccc34)CCN2CCO)c1 (stereo not drawn) [compound 133, 1-(3-(1-(2-hydroxyethyl)-4-(7H-pyrrolo[2,3-d]pyrimidin-4-yl)piperazin-2-yl)phenyl)-3-(2-isopropylphenyl)urea] | 0.1 to 0.999 µM | –
5 | O=C(Nc1ccccc1)N[C@@H]1CCN(C2CCCN(c3ncnc4[nH]ccc34)C2)C1 (stereo partly drawn) [compound 220] | 1 to 10 µM | –
6 | Nc1ncnc(N2CCC[C@@H](N3CCCC(Nc4cc(F)cc(Cl)c4)C3=O)C2)c1F (stereo partly drawn) [compound 277, (3′R)-1′-(6-amino-5-fluoropyrimidin-4-yl)-3-(3-chloro-5-fluorophenylamino)-1,3′-bipiperidin-2-one] | – | < 0.1 µM
7 | CN1CCC(O)(CNC(=O)Nc2cccc(C3CCCN(c4ncnc5[nH]ccc45)C3)c2)CC1 (stereo not drawn) [compound 235] | – | > 10 µM
8 | Cc1ccnc(Cl)c1NC(=O)Nc1cccc(C2CCCN(c3ncnc4[nH]ccc34)C2)c1 (stereo not drawn) [compound 190] | 1 to 10 µM | –
9 | O=C1C(Nc2cc(F)cc(Cl)c2)CCCN1[C@H]1CN(c2ncnc3[nH]ccc23)CC[C@@H]1C(F)(F)F (stereo partly drawn) [compound 352] | – | < 0.1 µM
10 | N#Cc1ccccc1NC(=O)Nc1cccc(C2CCCN(c3ncnc4[nH]ccc34)C2)c1 (stereo not drawn) [Cmpd 65, 1-(3-(1-(7H-pyrrolo[2,3-d]pyrimidin-4-yl)piperidin-3-yl)phenyl)-3-(2-cyanophenyl)urea] | – | > 10 µM
11 | Nc1ncnc(N2CCC[C@@H](N3CCCC(NCC4CCCCC4)C3=O)C2)c1F (stereo partly drawn) [compound 293, (3′R)-1′-(6-Amino-5-fluoropyrimidin-4-yl)-3-(cyclohexylmethylamino)-1,3′-bipiperidin-2-one] | – | > 10 µM
12 | O=C(Nc1cccc(C2CCCN(c3ncnc4[nH]ccc34)C2)c1)Nc1c(Cl)cccc1C(F)(F)F (stereo not drawn) [compound 161] | 0.1 to 0.999 µM | –
13 | CS(=O)(=O)N1CCN(c2ncnc3[nH]ccc23)CC1c1cccc(NC(=O)Nc2ccccc2)c1 (stereo not drawn) [compound 128, 1-(3-(1-(methylsulfonyl)-4-(7H-pyrrolo[2,3-d]pyrimidin-4-yl)piperazin-2-yl)phenyl)-3-phenylurea] | – | > 10 µM
14 | O=C(NCC1CCS(=O)(=O)C1)Nc1cccc(C2CCCN(c3ncnc4[nH]ccc34)C2)c1 (stereo not drawn) [compound 247] | – | > 10 µM
15 | Nc1cc(N2CCC[C@@H](N3CCCC(Nc4cc(F)cc(Cl)c4)C3=O)C2)ncn1 (stereo partly drawn) [compound 361] | – | < 0.1 µM
16 | Cc1cccc(Cl)c1NC(=O)Nc1cccc(C2CCCN(c3ncnc4[nH]ccc34)C2)c1 (stereo not drawn) [compound 238] | – | > 10 µM
17 | O=c1nc(Nc2cccc(C3CCCN(c4ncnc5[nH]ccc45)C3)c2)[nH]c2ccccc12 (stereo not drawn) [compound 119, 2-(3-(1-(7H-pyrrolo[2,3-d]pyrimidin-4-yl)piperidin-3-yl)phenylamino)quinazolin-4(1H)-one] | – | > 10 µM
18 | O=C1C(Nc2cc(Cl)cc(Cl)c2)CCCN1[C@@H]1CCCN(c2ncnc3[nH]ccc23)C1 (stereo partly drawn) [compound 276, (3′R)-3-(3,5-Dichloro-phenylamino)-1′-(7H-pyrrolo[2,3-d]pyrimidin-4-yl)-1,3′-bipiperidin-2-one] | – | < 0.1 µM

Row | Compound | IC50 | IC50 [1]
19 | O=C(Nc1ccccc1)Nc1cnc(C2CCCN(c3ncnc4[nH]ccc34)C2)s1 (stereo not drawn) [compound 117, 1-(2-(1-(7H-pyrrolo[2,3-d]pyrimidin-4-yl)piperidin-3-yl)thiazol-5-yl)-3-phenylurea] | – | > 10 µM
20 | FC(F)(F)c1ccc(Nc2cccc(C3CCCN(c4ncnc5[nH]ccc45)C3)c2)nc1 (stereo not drawn) [compound 142, N-(3-(1-(7H-pyrrolo[2,3-d]pyrimidin-4-yl)piperidin-3-yl)phenyl)-5-(trifluoromethyl)pyridin-2-amine] | – | > 10 µM
21 | N[C@@H]1CCN(c2ccccc2NC(=O)Nc2cccc(C3CCCN(c4ncnc5[nH]ccc45)C3)c2)C1 (stereo partly drawn) [compound 164] | 0.1 to 0.999 µM | –
22 | CNC(=O)Nc1cccc(C2CCCN(c3ncnc4[nH]ccc34)C2)c1 (stereo not drawn) [compound 262] | – | > 10 µM
23 | O=C(Nc1csc(C2CCCN(c3ncnc4[nH]ncc34)C2)n1)Nc1ccccc1N1CCCC1 (stereo not drawn) [compound 110, 1-(2-(1-(1H-pyrazolo[3,4-d]pyrimidin-4-yl)piperidin-3-yl)thiazol-4-yl)-3-(2-(pyrrolidin-1-yl)phenyl)urea] | – | < 0.1 µM
24 | O=C(NCC1CCOCC1)Nc1cccc(C2CCCN(c3ncnc4[nH]ccc34)C2)c1 (stereo not drawn) [compound 223] | – | > 10 µM
25 | Cc1ccc(C2CCCN(c3ncnc4[nH]ccc34)C2)cc1NC(=O)Nc1ccccc1 (stereo not drawn) [Cmpd 81, 1-(5-(1-(7H-pyrrolo[2,3-d]pyrimidin-4-yl)piperidin-3-yl)-2-methylphenyl)-3-phenylurea] | – | > 10 µM
26 | COc1ccccc1C(=O)Nc1cccc(C2CCCN(c3ncnc4[nH]ccc34)C2)c1 (stereo not drawn) [Cmpd 6, N-(3-(1-(7H-pyrrolo[2,3-d]pyrimidin-4-yl)piperidin-3-yl)phenyl)-2-methoxybenzamide] | – | > 10 µM
27 | Nc1ncnc(N2CCC[C@@H](N3CCC[C@@H](Nc4cc(Cl)cc(Cl)c4)C3=O)C2)c1F [compound 315, (3R,3′R)-1′-(6-Amino-5-fluoropyrimidin-4-yl)-3-(3,5-dichlorophenylamino)-1,3′-bipiperidin-2-one] | – | < 0.1 µM
28 | O=C1C(Nc2cc(Cl)cc(C(F)(F)F)c2)CCCN1[C@@H]1CCCN(c2ncnc3[nH]ccc23)C1 (stereo partly drawn) [compound 300, (3′R)-3-(3-Chloro-5-(trifluoromethyl)phenylamino)-1′-(7H-pyrrolo[2,3-d]pyrimidin-4-yl)-1,3′-bipiperidin-2-one] | – | < 0.1 µM
29 | N#C/N=C(/NCC1CCCCC1)Nc1cccc(C2CCCN(c3ncnc4[nH]ccc34)C2)c1 (stereo not drawn) [Cmpd 76, (E)-1-(3-(1-(7H-pyrrolo[2,3-d]pyrimidin-4-yl)piperidin-3-yl)phenyl)-2-cyano-3-(cyclohexylmethyl)guanidine] | – | > 10 µM
30 | FC(F)(F)c1cccnc1Nc1cccc(C2CCCN(c3ncnc4[nH]ccc34)C2)c1 (stereo not drawn) [compound 143, N-(3-(1-(7H-pyrrolo[2,3-d]pyrimidin-4-yl)piperidin-3-yl)phenyl)-3-(trifluoromethyl)pyridin-2-amine] | – | > 10 µM
31 | O=C1[C@@H](Nc2cc(Cl)cc(Cl)c2)CCN1[C@@H]1CCCN(c2ncnc3[nH]ccc23)C1 [compound 357] | – | < 0.1 µM
32 | COc1cccc(C(=O)Nc2cccc(C3CCCN(c4ncnc5[nH]ccc45)C3)c2)c1 (stereo not drawn) [Cmpd 7, N-(3-(1-(7H-pyrrolo[2,3-d]pyrimidin-4-yl)piperidin-3-yl)phenyl)-3-methoxybenzamide] | – | > 10 µM
33 | CC(C)(C)c1ccccc1NC(=O)Nc1cccc([C@@H]2CCCN(c3ncnc4[nH]ccc34)C2)c1 [compound 189] | 1 to 10 µM | –
34 | O=C(Nc1cccc(C2CCCN(c3ncnc4[nH]ccc34)C2)c1)Nc1cccc2[nH]ncc12 (stereo not drawn) [compound 226] | – | > 10 µM
35 | Nc1ncnc(N2CCC[C@@H](N3CCCC(Nc4cc(F)cc(Cl)c4)C3=O)C2)c1F (stereo in doubt) [compound 314, (3S,3′R)-1′-(6-Amino-5-fluoropyrimidin-4-yl)-3-(3-chloro-5-fluorophenylamino)-1,3′-bipiperidin-2-one] | – | < 0.1 µM
36 | COc1ccc(C2CCCN(c3ncnc4[nH]ccc34)C2)cc1NC(=O)Nc1ccccc1 (stereo not drawn) [compound 266] | – | > 10 µM
